Like-named read-outs stand apart in the source and are kept apart here. One block for each molecule: values may come before it.
Tests used:
[1] = tested on: hiPSC-CM (iCell Cardiomyocytes^2); assay: RTCA CardioECR assessment (impedance and electrophysiology parameters)
Outline: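 iCell^2 cardiomyocytes on fibronectin-coated ePlates monitored continuously by impedance for cell index, beating rate and amplitude. Field potential duration and spike amplitude were recorded from day 4–6 after monolayer formation. Data were double-normalized to DMSO control and baseline, with variability given as SD.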

[2] = tested on: hiPSC-CM (iCell Cardiomyocytes^2); assay: Intracellular miRNA expression by RT-qPCR in hiPSC-CM pellets after 72-hour treatment; conditions: for fold induction at 0.01 µM / fold induction at 0.03 µM / fold induction at 0.1 µM / fold induction at 0.3 µM / fold induction at 1 µM / fold induction at 3 µM: Homo sapiens
Outline: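 After 72-hour treatment and RTCA CardioECR assessment, total RNA from hiPSC-CM pellets was reverse transcribed, pre-amplified and quantified by TaqMan RT-qPCR against a 17-miRNA panel. Triplicates were pooled, so no statistical analysis was performed.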

[3] = ref extensive literature search, cited from earlier work
[4] = hiPSC-CM, 72-hour treatment, lowest concentration causing at least 20% change from baseline
[5] = 72 h, read-out: hsa-miR-7-5p fold change
[6] = 72 h, read-out: hsa-miR-126-3p fold change
[7] = 72 h, read-out: hsa-miR-146b-5p fold change
[8] = 72 h, read-out: hsa-miR-182-5p fold change
[9] = 72 h, read-out: hsa-miR-185-3p fold change
[10] = 72 h, read-out: hsa-miR-187-3p fold change
[11] = 72 h, read-out: hsa-miR-208b-3p fold change
[12] = 72 h, read-out: hsa-miR-[…] change
[13] = 72 h, read-out: hsa-miR-29a-5p fold change
[14] = 72 h, read-out: hsa-miR-96-5p fold change
[15] = 72 h, read-out: hsa-miR-133b fold change
[16] = 72 h, read-out: hsa-miR-365a-5p fold change

- Field Potential Duration MEC ([1]; hiPSC-CM, 72-hour treatment, at least 10% change): 0.1 µM
- Spike Amplitude (SA) MEC ([1]; human, 72 h): 0.01 µM
- miRNAs upregulated at the MEC overall (hiPSC-CM pellet) ([2]; fold change ≥2, 72 h): miR-126-3p, miR-187-3p
- miRNAs hiPSC-CM pellet, MEC overall ([2]; lowest concentration tested which produced miRNA upregulation (fold change ≥2), 72 h): 0.01 µM
SMILES: CCCCCNC(=N)N/N=C/c1c[nH]c2ccc(OC)cc12 [Tegaserod]
- Beating rate (BR) MEC [1, 4]: ND (ND – not detected, magnitude of change was lower than 20%)
- Cell index (CI) MEC [1, 4]: ND (ND – not detected, magnitude of change was lower than 20%)
- RTCA, MEC (BR) ([1]; hiPSC-CM, change ≥20%, Table 2): ND (ND – not detected, magnitude of change was lower than 20% for CI/BR)
- RTCA, MEC (CI) ([1]; hiPSC-CM, change ≥20%, Table 2): ND (ND – not detected, magnitude of change was lower than 20% for CI/BR)
- fold induction at 0.01 µM [2, 5]: 0.8
- fold induction at 0.03 µM [2, 5]: 1.4
- fold induction at 0.1 µM [2, 5]: 1.3
- fold induction at 0.3 µM [2, 5]: 2
- fold induction at 0.01 µM [2, 6]: 2
- fold induction at 0.03 µM [2, 6]: 4.9
- fold induction at 0.1 µM [2, 6]: 0.9
- fold induction at 0.3 µM [2, 6]: 3.2
- fold induction at 0.01 µM [2, 7]: 0.5
- fold induction at 0.03 µM [2, 7]: 0.7
- fold induction at 0.1 µM [2, 7]: 1.2
- fold induction at 0.3 µM [2, 7]: 0.9
- fold induction at 0.01 µM [2, 8]: 1.8
- fold induction at 0.03 µM [2, 8]: 3.9
- fold induction at 0.1 µM [2, 8]: 1.9
- fold induction at 0.3 µM [2, 8]: 15.7
- fold induction at 0.01 µM [2, 9]: 0.7
- fold induction at 0.03 µM [2, 9]: 1.3
- fold induction at 0.1 µM [2, 9]: 0.9
- fold induction at 0.3 µM [2, 9]: 1
- fold induction at 0.01 µM [2, 10]: 2.5
- fold induction at 0.03 µM [2, 10]: 2
- fold induction at 0.1 µM [2, 10]: 2
- fold induction at 0.3 µM [2, 10]: 3.7
- fold induction at 0.01 µM [2, 11]: 1.8
- fold induction at 0.03 µM [2, 11]: 1.2
- fold induction at 0.1 µM [2, 11]: 1.7
- fold induction at 0.3 µM [2, 11]: 1.4
- fold induction at 0.01 µM [2, 12]: 0.8
- fold induction at 0.03 µM [2, 12]: 0.8
- fold induction at 0.1 µM [2, 12]: 0.9
- fold induction at 0.3 µM [2, 12]: 0.7
- Cmax total ([3]; Supplementary Table 1): 80 nM
- Cmax total ([3]; Table 1): 80 nM

SMILES: O=P1(N(CCCl)CCCl)NCCCO1 (stereo not drawn) [Cyclophosphamide]
- Beating rate (BR) MEC [1, 4]: ND (ND – not detected, magnitude of change was lower than 20%)
- RTCA, MEC (BR) ([1]; hiPSC-CM, change ≥20%, Table 2): ND (ND – not detected, magnitude of change was lower than 20% for CI/BR)
- RTCA, MEC (CI) ([1]; hiPSC-CM, change ≥20%, Table 2): ND (ND – not detected, magnitude of change was lower than 20% for CI/BR)
- miRNAs hiPSC-CM pellet, MEC overall [2]: 3 µM (96-5p, 182-5p, 185-3p, 208b-3p)
- miRNAs upregulated at the MEC overall (hiPSC-CM pellet) [2]: 3 µM (96-5p, 182-5p, 185-3p, 208b-3p)
- Cmax total ([3]; Supplementary Table 1): 126000 nM
- Cmax total ([3]; Table 1): 126000 nM

- Cell index (CI) MEC [1, 4]: 0.1 µM
- RTCA, MEC (CI) ([1]; hiPSC-CM, change ≥20%, Table 2): 0.1 µM
- Beating Rate MEC ([1]; human, 72 h): 1 µM
- Beating rate (BR) MEC ([1]; human, 72 h): 1 µM
- Cell Index MEC ([1]; human, 72 h): 0.1 µM
- Contractility Amplitude MEC ([1]; human, 72 h): 0.1 µM
- Field Potential Duration MEC ([1]; human, 72 h): 1 µM
- RTCA, MEC (BR) ([1]; human, 72 h): 1 µM
- Spike Amplitude (SA) MEC ([1]; human, 72 h): 0.1 µM
- intracellular miRNA upregulation in hiPSC-CM, in words [2]: smallest fold change
- miRNAs hiPSC-CM pellet, MEC overall [2]: 0.1 µM
- miRNAs upregulated at the MEC overall (hiPSC-CM pellet) [2]: miR-34a-5p, miR-146b-5p
SMILES: CCC1=C[C@@H]2CN(C1)Cc1c([nH]c3ccccc13)[C@@](C(=O)OC)(c1cc3c(cc1OC)N(C)[C@H]1[C@@](O)(C(=O)OC)[C@H](OC(C)=O)[C@]4(CC)C=CCN5CC[C@]31[C@@H]54)C2 [Vinorelbine]
- fold induction at 0.1 µM [2, 5]: 1
- fold induction at 0.3 µM [2, 5]: 1.4
- fold induction at 1 µM [2, 5]: 0.9
- fold induction at 3 µM [2, 5]: 1.8
- fold induction at 0.1 µM [2, 13]: 0.4
- fold induction at 0.3 µM [2, 13]: 1.1
- fold induction at 1 µM [2, 13]: 0.2
- fold induction at 3 µM [2, 13]: 0.9
- fold induction at 0.1 µM [2, 14]: 1.3
- fold induction at 0.3 µM [2, 14]: 4.8
- fold induction at 1 µM [2, 14]: 0.9
- fold induction at 0.1 µM [2, 6]: 1.4
- fold induction at 0.3 µM [2, 6]: 2
- fold induction at 1 µM [2, 6]: 0.6
- fold induction at 3 µM [2, 6]: 0.2
- fold induction at 0.1 µM [2, 15]: 0.1
- fold induction at 0.3 µM [2, 15]: 0.2
- fold induction at 1 µM [2, 15]: 0.3
- fold induction at 3 µM [2, 15]: 0.1
- fold induction at 0.1 µM [2, 7]: 3.1
- fold induction at 0.3 µM [2, 7]: 1.1
- fold induction at 1 µM [2, 7]: 0.1
- fold induction at 3 µM [2, 7]: 0.2
- fold induction at 0.1 µM [2, 8]: 0.7
- fold induction at 1 µM [2, 8]: 0.1
- fold induction at 0.1 µM [2, 9]: 1.2
- fold induction at 0.3 µM [2, 9]: 1.9
- fold induction at 1 µM [2, 9]: 0.9
- fold induction at 3 µM [2, 9]: 0.6
- fold induction at 0.1 µM [2, 10]: 1.1
- fold induction at 0.3 µM [2, 10]: 0.9
- fold induction at 1 µM [2, 10]: 0.8
- fold induction at 3 µM [2, 10]: 0.3
- fold induction at 0.1 µM [2, 11]: 0.8
- fold induction at 0.3 µM [2, 11]: 1.7
- fold induction at 1 µM [2, 11]: 0.7
- fold induction at 3 µM [2, 11]: 0.8
- fold induction at 0.3 µM [2, 16]: 2.4
- fold induction at 1 µM [2, 16]: 0.1
- Cmax total ([3]; Supplementary Table 1): 811 nM
- Cmax total ([3]; Table 1): 810 nM

Reference: publication PMC12332266 (Frontiers in Pharmacology, 2025)
